Measurements taken from patent US8835489B2, “Compounds of the pterocarpanquinone family, method for preparing the same, pharmaceutical composition containing the new compounds of the pterocarpanquinone family, uses and therapeutic method” (Universidade Federal Do Rio de Janeiro, priority 2008, dated 2014).

Assays:
neutrophils in LBA = assay: LPS inhalation in mice, neutrophils in bronchoalveolar lavage; conditions: in vivo, FIG. 4, p<0.05 compared to vehicle group
Experimental: For inhalation of LPS, we used a glass inhalation chamber with a volume of 1 liter, with a capacity of 8 mice. The mice were placed in this chamber for five minutes and inhaled aerosols produced by positive pressure of 2 mL of a suspension of LPS containing 0.5 mg/mL, prepared in physiological saline (NaCl 0.9%). The control group inhaled saline only. Groups of animals were treated with LQB dissolved in physiological saline with 10% ethanol (vehicle) at doses of 1, 10 and 100 mg/kg. The substances were administered in a volume of 200 μL intraperitoneal (ip) 1 hour before LPS inhalation. In parallel, groups of animals were treated with 200 μL of the vehicle. Three hours after inhalation of LPS, animals were sacrificed by cervical dislocation, their tracheas were exposed, cannulated and lungs were washed with saline to a final volume of 1.5 mL in tubes kept at 4° C. […] An aliquot of 300 μL of lavage was used to count and identify the cells and the remainder was centrifuged at 1,500×g for 10 minutes (Sorvall, USA). […] The total number of cells was determined in a cell counter type Coulter Counter (Coulter Electronics Inc.—USA). The identification of different cell types present in BAL cytospin was made after 200 μl of LBA at 80×g for 1 minute (Shandon—USA). The slides prepared from cytospin stained with Diff-Quick kit (Shandon, USA). We counted approximately 200 cells on each slide. […]

TNF-α release by PBMC = assay: LPS-stimulated release of TNF-α by PBMC in vitro; assay type: cell-based, human; conditions: FIG. 3, p<0.05
Experimental: Mononuclear cells were obtained from peripheral blood of healthy donors by gradient centrifugation in Ficoll. 20 ml peripheral blood were carefully added to 16 mL of Ficoll followed by centrifugation at 1500×g for 30 minutes. Once collected, the PBMC were washed twice with saline and resuspended in culture field RPMI 1640 containing 0.1 mg streptomycin/mL, penicillin 100 U/mL and supplemented with 10% of FCS. The PBMC resuspended in RPMI were seeded in 24-well plate (8×10^5 cells/well). The cells were incubated with LPS at a concentration of 2 μg/mL at 37° C. in 4% CO2 for 2 hours. After incubation with LPS, the supernatant was collected and centrifuged at 14,000×g for 1 minute to rule out any possible cell. The supernatant was stored at −20° C. for subsequent cytokine. […] A group of cells received only the vehicle.

## O=C1C2=C(C(=O)c3ccccc31)[C@H]1Oc3ccccc3[C@H]1CO2 [LQB1]
Neutrophils in LBA
  release of neutrophils in LBA: inhibiting the release of neutrophils
TNF-α release by PBMC
  release of TNF-α by PBMC: inhibiting release of TNF-α
